Laboratory results: US12371456B2, “Proteins for the treatment of epithelial barrier function disorders” (Genevive, Inc., priority 2017, dated 2025)

Tests used:
[1] = test system: HCT8 enterocyte and HT29-MTX goblet cell lines; assay: Oris Cell Migration assay (epithelial cell wound healing); type: cell-based, human; conditions: 48 hours; SG-14 1 μg/ml, EGF 30 ng/ml, staurosporine 100 nM; FIG. 5
From the text: The 96 well Oris Cell Migration assay containing plugs preventing cell attachment in the center of each well was used according to the manufacturer's instructions (Platypus Technologies, Madison, WI). The migration assay plates were warmed to room temperature prior to use and plugs were removed from 100% confluence wells prior to cell addition. The HCT8 enterocyte and HT29-MTX goblet cell lines were used at a 9:1 ratio with a total of 5×10^4 total cells added per well (4.5×10^4 HCT8 cells and 0.5×10^4 HT29-MTX cells). Cells were incubated at 37° C.+5% CO2 for 24 hours. Plugs were then removed from all control and sample wells. Control wells included cells treated with the diluent vehicle as the blank, 30 ng/ml epidermal growth factor (EGF) as the positive control, and 100 nM staurosporine as the negative control, all diluted in cRPMI. Sample wells contained SG-14 protein at a concentration of 1 μg/ml diluted in cRPMI. 100% and 0% wells were cultured in cRPMI. […] The green fluorescent viability dye […] was added to all wells at a concentration of […] in PBS containing 0.9 mM CaCl2) and 0.5 mM MgCl2, incubated for 30 min at 37° C.+5% CO2, the dye was removed and cells were washed in PBS containing 0.9 mM CaCl2) and 0.5 mM MgCl2 and fluorescence was measured. […] Samples were normalized between 100% and 0% samples and values expressed as a percent growth.

[2] = test system: HCT8 enterocytes and HT29-MTX goblet cells (epithelial monolayer) co-cultured with U937 monocytes; assay: Co-culture trans-epithelial electrical resistance (TEER) assay, barrier disruption by heat killed E. coli; type: cell-based, human; conditions: staurosporine 100 nM, negative control
Experimental: Assays were performed as described below in trans-well plates where co-cultures of multiple cell types were performed utilizing a permeable membrane to separate cells. In the apical (top) chamber, human colonic epithelial cells, consisting of a mixture of enterocytes and goblet cells, were cultured until cells obtained tight junction formation and barrier function capacity as assessed by measurement of trans-epithelial electrical resistance (TEER). In the basolateral chamber, monocytes were cultured separately. Epithelial cells were primed with inflammatory cytokines.
Cell culture. The HCT8 human enterocyte cell line (ATCC Cat. No. CCL-244) was maintained in RPMI-1640 medium supplemented with 10% fetal bovine serum, 100 IU/ml penicillin, 100 µg/ml streptomycin, 10 µg/ml gentamicin and 0.25 µg/ml amphotericin (cRPMI). HT29-MTX human goblet cells (Sigma-Aldrich (St. Louis, MO; Cat. No. 12040401) were maintained in DMEM medium with 10% fetal bovine serum, 100 IU/ml penicillin, 100 µg/ml streptomycin, 10 µg/ml gentamicin and 0.25 µg/ml amphotericin (cDMEM). Epithelial cells were passaged by trypsinization and were used between 5 and 15 passages following thawing from liquid nitrogen stocks. U937 monocytes (ATCC Cat. No. 700928) were maintained in cRPMI medium as a suspension culture, and split by dilution as needed to maintain cells between 5×10^5 and 2×10^6 cells/ml. U937 cells were used up to passage 18 following thawing from liquid nitrogen stocks.
Epithelial cell culture. A mixture of HCT8 enterocytes and HT29-MTX goblet cells were plated at a 9:1 ratio, respectively, in the apical chamber of the transwell plate as described previously (Berget et al., 2017, Int J Mol Sci, 18:1573; Beduneau et al., 2014, Eur J Pharm Biopharm, 87:290-298). […] Epithelial cells were trypsinized from culture flasks and viable cells determined by trypan blue counting. […]
Co-culture assay. […] Trans-epithelial electrical resistance (TEER) readings were measured after the IFN-γ treatment and were used as the pre-treatment TEER values. […]

[3] = test system: DSS model of inflammatory bowel disease; assay: DSS model: colon length and colon weight to length ratio; type: in vivo, C57BL/6 mice; conditions: DSS treated mice
Experimental: Eight-week old C57BL/6 mice were housed 5 animals were cage and given food and water ad libitum for 7 days. Following the 7-day acclimation period, treatments were initiated concurrently with addition of 2.5% DSS to the drinking water. […] The mice were treated with 2.5% dextran sodium sulfate (DSS) in their drinking water for 6 days. Treatments were continued with SG-14 or […]-GLP2 twice a day (b.i.d.) in the morning and evening (every 8 and 16 hr) with i.p. injections at 50 nmoles/kg. Fresh 2.5% DSS drinking water was prepared every 2 days. Colon length was measured in mice included in the DSS model described in Example 7. […] The graphs in FIG. 10 and FIG. 11 represent data pooled from the single experiment (n=10).

[4] = set-up: species or system mice; conditions: mouse, in vivo, ip

In the case of `CN[C@@H]1C[C@H]2O[C@@](C)([C@@H]1OC)n1c3ccccc3c3c4c(c5c6ccccc6n2c5c31)C(=O)NC4` [staurosporine, reference compound], the “Wound healing (percent growth)” value [1] is reported as “suppressing cell proliferation” and the “Effect on TEER (control compound)” value [2] is reported as “drastic decrease in TEER”.

In the case of “EGF: epidermal growth factor, positive control in wound healing assay”, the “Wound healing (percent growth)” value [1] is reported as “increasing proliferation”.

In the case of “Gly2-GLP2: a stable analog of glucagon-like peptide 2 (GLP2); positive control in DSS model (HGDGSFSDEMNTILDNLAARDFINWLIQTKITD; Glucagon-like peptide 2; UniProt P01275 146-178, looked up, variant A2G) [reference compound]”, the Colon length ([3]; FIG. 10) is reported as “significant improvement in colon length” and the “Ratio between colon weight and length” value ([3]; FIG. 11) is reported as “significant reduction”.

With “fluorescently labeled bovine serum albumin: fluorescently labeled bovine serum albumin used for tracking after i.p. injection” the “Time at which protein reached the colon after i.p. delivery” value [4] was 6 h.
